# Paper PMC7464492, “Cisplatin Decreases ENaC Activity Contributing to Renal Salt Wasting Syndrome” (Cancers, 2020)
# Target: T1, epithelial Na+ channel (mENaC; α-, β- and γ-mouse ENaC subunits) (Mus musculus, UniProt Q61180+Q9WU38+Q9WU39)
# T1 construct: gene Scnn1a; α-, β- and γ-mouse ENaC subunits genetically linked to NH2-terminal eCFP, expressed in CHO cells; with β- and γ-ENaC subunits (Scnn1b, Scnn1g)
# T1 sequence (Q61180 1-699): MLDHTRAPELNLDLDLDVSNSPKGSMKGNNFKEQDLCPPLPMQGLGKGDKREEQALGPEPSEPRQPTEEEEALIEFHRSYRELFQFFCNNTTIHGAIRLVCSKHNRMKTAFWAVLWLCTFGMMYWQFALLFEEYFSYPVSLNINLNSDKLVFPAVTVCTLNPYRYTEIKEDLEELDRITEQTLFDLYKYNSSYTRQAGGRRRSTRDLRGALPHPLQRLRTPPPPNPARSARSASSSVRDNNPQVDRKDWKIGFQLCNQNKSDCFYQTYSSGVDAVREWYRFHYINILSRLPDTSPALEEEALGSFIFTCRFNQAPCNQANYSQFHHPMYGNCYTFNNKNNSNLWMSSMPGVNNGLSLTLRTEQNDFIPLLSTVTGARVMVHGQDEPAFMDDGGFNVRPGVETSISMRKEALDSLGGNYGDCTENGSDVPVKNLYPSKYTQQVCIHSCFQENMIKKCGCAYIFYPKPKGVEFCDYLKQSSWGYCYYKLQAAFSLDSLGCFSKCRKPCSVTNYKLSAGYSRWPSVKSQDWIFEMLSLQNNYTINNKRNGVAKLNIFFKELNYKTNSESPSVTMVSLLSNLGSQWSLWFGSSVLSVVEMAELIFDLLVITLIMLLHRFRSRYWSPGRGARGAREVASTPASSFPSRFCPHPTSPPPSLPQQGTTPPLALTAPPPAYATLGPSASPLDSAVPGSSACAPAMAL
# T1 sequence (Q9WU38 1-638): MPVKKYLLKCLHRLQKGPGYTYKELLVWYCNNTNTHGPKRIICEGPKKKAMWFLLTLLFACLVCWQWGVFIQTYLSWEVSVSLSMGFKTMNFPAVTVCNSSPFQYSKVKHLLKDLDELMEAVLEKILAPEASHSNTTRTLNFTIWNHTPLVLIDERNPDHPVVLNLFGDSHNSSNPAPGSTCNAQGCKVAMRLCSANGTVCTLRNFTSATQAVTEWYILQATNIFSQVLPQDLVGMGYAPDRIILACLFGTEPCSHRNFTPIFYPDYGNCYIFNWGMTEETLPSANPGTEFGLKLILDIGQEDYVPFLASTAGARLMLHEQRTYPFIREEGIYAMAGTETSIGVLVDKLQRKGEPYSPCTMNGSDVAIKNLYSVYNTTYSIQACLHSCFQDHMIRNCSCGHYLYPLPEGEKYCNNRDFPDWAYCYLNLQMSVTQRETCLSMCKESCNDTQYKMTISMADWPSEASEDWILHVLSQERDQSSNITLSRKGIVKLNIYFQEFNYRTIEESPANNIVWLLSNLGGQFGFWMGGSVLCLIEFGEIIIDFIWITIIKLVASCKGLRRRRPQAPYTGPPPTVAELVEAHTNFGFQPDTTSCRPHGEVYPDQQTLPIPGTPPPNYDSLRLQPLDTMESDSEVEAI
# T1 sequence (Q9WU39 1-655): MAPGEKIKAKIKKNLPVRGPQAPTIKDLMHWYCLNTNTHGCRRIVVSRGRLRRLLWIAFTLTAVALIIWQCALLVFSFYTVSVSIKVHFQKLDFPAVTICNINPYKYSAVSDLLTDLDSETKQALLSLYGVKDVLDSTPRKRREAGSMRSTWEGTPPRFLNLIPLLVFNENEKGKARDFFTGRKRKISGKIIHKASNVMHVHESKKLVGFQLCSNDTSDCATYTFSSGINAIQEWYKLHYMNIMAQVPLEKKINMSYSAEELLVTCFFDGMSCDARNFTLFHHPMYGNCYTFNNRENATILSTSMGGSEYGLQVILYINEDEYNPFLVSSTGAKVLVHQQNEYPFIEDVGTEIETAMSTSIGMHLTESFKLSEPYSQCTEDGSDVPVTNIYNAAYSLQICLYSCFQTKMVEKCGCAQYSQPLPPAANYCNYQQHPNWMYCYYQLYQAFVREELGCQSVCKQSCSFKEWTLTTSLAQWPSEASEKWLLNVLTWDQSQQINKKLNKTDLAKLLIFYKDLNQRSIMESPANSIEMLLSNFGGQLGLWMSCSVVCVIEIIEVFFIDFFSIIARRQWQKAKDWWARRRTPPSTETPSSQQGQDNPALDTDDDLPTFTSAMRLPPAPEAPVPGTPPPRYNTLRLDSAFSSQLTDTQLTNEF
# Assay: whole-cell patch clamp dose-response and competition with amiloride in CHO cells (partial inhibitor, Emax […]); direct action inferred, secondary effects not excluded
# Assay type: cell-based
compound,measurement,value
"[NH2][Pt]([NH2])([Cl])[Cl] [CDDP, cis-diamminedichloroplatinum (II)]",IC50,1000 ± 180 nM
